The source of these data is PMC2824011 (Analytical biochemistry, 2009).

Usually Ki stands for a measure of affinity in units of concentration, obtained from inhibition or displacement. Higher therefore signals weaker binding.

Assay [1] concerns the target T1, Golgi α-mannosidase II (dGMII) (Drosophila melanogaster, UniProt Q24451).
T1 sequence (Q24451 76-1108): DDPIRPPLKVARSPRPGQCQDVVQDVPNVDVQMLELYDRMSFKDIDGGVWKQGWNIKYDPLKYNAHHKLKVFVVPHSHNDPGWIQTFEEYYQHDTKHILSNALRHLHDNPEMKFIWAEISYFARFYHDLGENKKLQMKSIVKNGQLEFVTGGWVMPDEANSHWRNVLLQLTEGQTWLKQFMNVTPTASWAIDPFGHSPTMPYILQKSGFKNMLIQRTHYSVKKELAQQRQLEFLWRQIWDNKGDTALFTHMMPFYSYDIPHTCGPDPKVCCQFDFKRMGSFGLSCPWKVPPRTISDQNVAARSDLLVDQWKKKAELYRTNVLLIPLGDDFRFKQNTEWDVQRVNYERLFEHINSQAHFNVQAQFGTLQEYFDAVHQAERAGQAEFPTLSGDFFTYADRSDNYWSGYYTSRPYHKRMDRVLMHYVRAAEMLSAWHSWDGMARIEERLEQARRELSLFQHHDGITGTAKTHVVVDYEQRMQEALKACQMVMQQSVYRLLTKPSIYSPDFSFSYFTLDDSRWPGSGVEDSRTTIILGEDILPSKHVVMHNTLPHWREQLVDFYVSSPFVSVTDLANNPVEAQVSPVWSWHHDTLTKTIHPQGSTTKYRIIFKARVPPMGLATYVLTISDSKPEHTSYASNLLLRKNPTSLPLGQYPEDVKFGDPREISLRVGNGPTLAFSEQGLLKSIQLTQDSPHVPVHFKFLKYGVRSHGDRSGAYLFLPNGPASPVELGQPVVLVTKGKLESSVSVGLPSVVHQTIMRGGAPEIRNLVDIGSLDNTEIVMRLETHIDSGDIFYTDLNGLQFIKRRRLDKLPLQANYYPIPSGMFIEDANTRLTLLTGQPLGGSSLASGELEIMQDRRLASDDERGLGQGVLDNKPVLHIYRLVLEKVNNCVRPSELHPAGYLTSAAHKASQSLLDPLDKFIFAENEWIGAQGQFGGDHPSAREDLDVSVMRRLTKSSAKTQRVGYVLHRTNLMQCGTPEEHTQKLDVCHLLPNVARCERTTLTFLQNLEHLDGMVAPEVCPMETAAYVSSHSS
The assay is described as follows: continuous fluorometric enzyme assay with Res-Man substrate, pH […]. The assay is classed as biochemical.

The target of assay [2] is T2, human lysosomal mannosidase (HLM) (Homo sapiens, UniProt O00754).
T2 sequence (O00754 50-1011): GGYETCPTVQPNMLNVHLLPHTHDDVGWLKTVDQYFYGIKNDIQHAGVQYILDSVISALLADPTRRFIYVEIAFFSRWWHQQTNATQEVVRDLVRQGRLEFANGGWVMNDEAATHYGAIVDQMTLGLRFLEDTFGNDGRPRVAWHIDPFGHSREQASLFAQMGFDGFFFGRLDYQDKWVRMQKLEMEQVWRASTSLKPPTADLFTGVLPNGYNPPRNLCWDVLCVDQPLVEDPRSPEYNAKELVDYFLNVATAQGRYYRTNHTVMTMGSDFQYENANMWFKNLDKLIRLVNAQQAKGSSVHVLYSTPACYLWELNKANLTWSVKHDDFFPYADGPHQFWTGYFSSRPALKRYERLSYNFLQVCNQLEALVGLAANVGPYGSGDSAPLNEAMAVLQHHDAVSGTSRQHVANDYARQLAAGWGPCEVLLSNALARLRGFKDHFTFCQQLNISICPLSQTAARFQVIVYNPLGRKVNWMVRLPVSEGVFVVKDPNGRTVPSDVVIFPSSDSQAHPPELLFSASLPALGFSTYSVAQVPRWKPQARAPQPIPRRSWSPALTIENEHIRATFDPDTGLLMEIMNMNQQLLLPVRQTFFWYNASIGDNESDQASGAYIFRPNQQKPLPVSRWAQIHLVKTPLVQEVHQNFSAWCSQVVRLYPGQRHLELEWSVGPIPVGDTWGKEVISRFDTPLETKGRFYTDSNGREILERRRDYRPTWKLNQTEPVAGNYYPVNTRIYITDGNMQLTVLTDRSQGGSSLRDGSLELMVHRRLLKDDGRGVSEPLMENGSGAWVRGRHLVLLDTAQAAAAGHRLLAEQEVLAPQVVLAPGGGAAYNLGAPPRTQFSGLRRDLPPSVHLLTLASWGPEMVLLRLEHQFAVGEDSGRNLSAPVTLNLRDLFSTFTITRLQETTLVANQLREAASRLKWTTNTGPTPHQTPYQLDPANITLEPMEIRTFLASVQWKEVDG
As to the kind of experiment: continuous fluorometric turnover assay of purified enzyme, pH […]. The assay is classed as biochemical.

With `O[C@H]1[C@H]2[C@H](O)CCCN2C[C@H]1O` [swainsonine], affinity in assay [1] was put at a Ki of 44.7 nM.

Take `O=c1ccc2nc3ccc(O[C@H]4O[C@H](CO)[C@@H](O)[C@H](O)[C@@H]4O)cc3oc-2c1` [Res-Man, resorufin α-D-mannopyranoside]: the “continuous fluorometric turnover assay of purified enzyme, pH 6.0” value in assay [2] is “recombinant human lysosomal mannosidase (HLM) (◊) using the substrate resorufin-α-D-mannopyranoside (Res-Man)”.
